Assay results: US12624044B2, “SMARCA degraders and uses thereof” (Kymera Therapeutics, Inc., priority 2019, dated 2026)

Target: SMARCA2 (Homo sapiens, UniProt P51531)
Assay: MSD SMARCA2 degradation in A549 cell line
Format: cell-based
Conditions: 24 h; for Dmax: A549, A549 cells; for DC50: A549 cells, read-out: SMARCA2 MSD A549 degradation 24 h: Average external-Abs DC50
Description: Cells were seeded into 96-well plates (A549 cells: 2×10^4 cells/well/100 ul media) abd incubated overnight. The next day, 200 nl compound were added into the intermediate plate with Echo (Labcyte 550) from source plate containing a 3-fold serial dilution from top concentration of 1 mM. The culture medium was changed with 80 ul of fresh medium and 80 ul of 2× compound solution was added into the well to make a final concentration of 1000 nM, 333.3 nM, 111.1 nM, 37.04 nM, 12.35 nM, 4.115 nM, 1.372 nM, 0.457 nM, 0.152 nM and 0 nM (DMSO). The wells were mixed and then incubated for 24 hours. The media was aspirated from the cultures and 60 ul pre-chilled PIPA lysis buffer (Boston BioProducts BP-115D) with protease/phosphatase inhibitor (Roche 05892791001/Roche 04906837001) was added into the well to lyze the cells for 20 minutes at 4° C. The MSD plate (L15XA) was coated with 40 ul cell lysate and incubated at 4° C. overnight. The next day, the plate was washed three times with TBST (CST #9997S), 150 ul/well. The MSD plates was blocked with 150 ul blocking buffer per well and shaked for 1 hr at RT, 600 rpm. The blocking buffer was 3% Blocker A (MSD, R93BA-4) in TBST. The MSD plate was washed three times with 150 ul/well of TBST and 25 ul/well of detection antibody (Rabbit anti-SMARCA2/BRM antibody, 100 μg/ml, ab223735) was added at final concentration of 1 ug/ml diluted in 1% Blocking buffer and shaken for 1 hour at RT, 600 rpm. The MSD plate was washed three times with 150 ul/well of TBST and 25 ul/well of SULFO-TAG anti-rabbit antibody (MSD, R32AB-1) was added at final concentration of 1 ug/ml diluted in 1% Blocking buffer and shaken for 1 hour at RT, 600 rpm. The MSD plate was washed three times with 150 ul/well of TBST and 150 ul/well of 2×MSD reading buffer diluted from 4× (MSD, R92TC-2) with water was added. Lastly, the MSD instrument was read.
The letter codes for the percentage of SMARCA2 degradation after 24 hours (Dmax %) include: A (>90% degradation), B (>70-90% degradation), C (50-70% degradation), and D (<50% degradation).

Sequence of SMARCA2 (P51531 whole entry): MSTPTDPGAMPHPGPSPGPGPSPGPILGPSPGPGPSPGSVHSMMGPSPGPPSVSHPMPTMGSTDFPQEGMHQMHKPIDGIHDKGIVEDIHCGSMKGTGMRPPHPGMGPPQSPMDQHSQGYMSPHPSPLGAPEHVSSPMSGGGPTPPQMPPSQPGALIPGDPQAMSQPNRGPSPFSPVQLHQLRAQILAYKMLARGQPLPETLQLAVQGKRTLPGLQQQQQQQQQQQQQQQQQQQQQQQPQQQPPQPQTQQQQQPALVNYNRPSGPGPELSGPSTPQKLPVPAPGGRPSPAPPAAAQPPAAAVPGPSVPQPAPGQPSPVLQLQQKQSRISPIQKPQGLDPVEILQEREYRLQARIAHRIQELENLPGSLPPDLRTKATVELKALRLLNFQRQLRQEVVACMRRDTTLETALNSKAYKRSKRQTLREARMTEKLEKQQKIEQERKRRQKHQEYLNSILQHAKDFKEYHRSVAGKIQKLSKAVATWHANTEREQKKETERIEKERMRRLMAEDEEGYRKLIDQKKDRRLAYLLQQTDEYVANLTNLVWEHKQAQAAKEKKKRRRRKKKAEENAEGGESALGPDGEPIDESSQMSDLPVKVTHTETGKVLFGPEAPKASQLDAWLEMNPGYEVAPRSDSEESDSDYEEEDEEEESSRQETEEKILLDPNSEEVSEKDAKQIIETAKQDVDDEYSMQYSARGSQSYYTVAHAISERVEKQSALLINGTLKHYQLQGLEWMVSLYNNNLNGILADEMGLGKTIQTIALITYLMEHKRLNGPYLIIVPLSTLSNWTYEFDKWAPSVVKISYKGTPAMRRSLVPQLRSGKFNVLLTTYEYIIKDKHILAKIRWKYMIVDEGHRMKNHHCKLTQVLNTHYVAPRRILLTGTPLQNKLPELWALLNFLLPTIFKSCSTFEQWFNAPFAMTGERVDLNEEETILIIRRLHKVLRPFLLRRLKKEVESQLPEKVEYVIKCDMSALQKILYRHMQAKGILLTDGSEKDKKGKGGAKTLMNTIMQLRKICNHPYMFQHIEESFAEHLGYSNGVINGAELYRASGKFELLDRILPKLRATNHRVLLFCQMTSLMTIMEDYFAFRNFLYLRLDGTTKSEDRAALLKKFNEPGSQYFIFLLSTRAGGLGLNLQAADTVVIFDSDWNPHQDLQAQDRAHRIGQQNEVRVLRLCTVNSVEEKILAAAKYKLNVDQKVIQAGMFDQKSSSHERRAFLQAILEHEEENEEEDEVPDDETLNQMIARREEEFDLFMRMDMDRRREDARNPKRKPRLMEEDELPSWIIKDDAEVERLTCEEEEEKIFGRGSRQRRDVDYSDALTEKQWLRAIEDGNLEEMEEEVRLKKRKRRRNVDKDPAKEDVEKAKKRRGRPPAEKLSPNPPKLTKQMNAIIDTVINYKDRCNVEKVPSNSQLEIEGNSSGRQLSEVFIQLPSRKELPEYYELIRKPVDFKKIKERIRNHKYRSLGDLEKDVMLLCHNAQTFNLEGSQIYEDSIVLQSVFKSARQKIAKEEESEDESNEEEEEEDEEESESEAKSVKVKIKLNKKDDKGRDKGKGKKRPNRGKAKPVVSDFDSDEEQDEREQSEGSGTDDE

Row | SMILES | Dmax [%] | DC50 [µM]
1 | Cn1c(=O)n(C2CCC(=O)NC2=O)c2cccc(CN3CCC(OC4CCN(Cc5cccc(C#Cc6cc(NC(=O)Nc7cc(F)ncc7CO)ccn6)c5)CC4)CC3)c21 (centres unmarked) [I-313] | < 50 | > 1
2 | Cn1c(=O)n(C2CCC(=O)NC2=O)c2ccc(CCCOCCCCN3CCN(Cc4cccc(C#Cc5cc(NC(=O)Nc6cc(F)ncc6CO)ccn5)c4)CC3)cc21 (centres unmarked) [I-314] | < 50 | > 1
3 | Cn1c(=O)n(C2CCC(=O)NC2=O)c2cccc(CCCOC3CCN(Cc4cccc(C#Cc5cc(NC(=O)Nc6cc(F)ncc6CO)ccn5)c4)CC3)c21 (centres unmarked) [I-315] | < 50 | > 1
4 | CN(Cc1cccc(C#Cc2cc(NC(=O)Nc3cc(F)ncc3CO)ccn2)c1)CC1CCN(Cc2cccc3c2n(C)c(=O)n3C2CCC(=O)NC2=O)CC1 (centres unmarked) [I-316] | < 50 | > 1
5 | O=C1CCC(n2c(=O)oc3c(CCCOC4CCN(Cc5cccc(C#Cc6cc(NC(=O)Nc7cc(F)ncc7CO)ccn6)c5)CC4)cccc32)C(=O)N1 (centres unmarked) [I-317] | < 50 | > 1
6 | CN(Cc1cccc(C#Cc2cc(NC(=O)Nc3cc(F)ncc3CO)ccn2)c1)C1CCN(Cc2cccc3c2n(C)c(=O)n3C2CCC(=O)NC2=O)CC1 (centres unmarked) [I-318] | < 50 | > 1
7 | Cn1c(=O)n(C2CCC(=O)NC2=O)c2cccc(CN3CCC4(CCN(Cc5cccc(C#Cc6cc(NC(=O)Nc7cc(F)ncc7CO)ccn6)c5)CC4)CC3)c21 (centres unmarked) [I-319] | < 50 | > 1
8 | CN(Cc1cccc(C#Cc2cc(NC(=O)Nc3cc(F)ncc3CO)ccn2)c1)C1CCN(C(=O)c2cccc3c2n(C)c(=O)n3C2CCC(=O)NC2=O)CC1 (centres unmarked) [I-320] | < 50 | > 1
9 | Cc1ncsc1-c1ccc(CNC(=O)[C@@H]2C[C@@H](O)CN2C(=O)[C@@H](NC(=O)[C@H]2CC[C@@H](Cc3cnc(N4C5CCC4CN(c4cc(-c6ccccc6O)nnc4N)C5)nc3)CC2)C(C)(C)C)cc1 [I-367] | > 90 | < 0.1
10 | Cc1ncsc1-c1ccc(CNC(=O)[C@@H]2C[C@@H](O)CN2C(=O)[C@@H](NC(=O)[C@H]2C[C@@H](N(C)Cc3cnc(N4C5CCC4CN(c4cc(-c6ccccc6O)nnc4N)C5)nc3)C2)C(C)(C)C)cc1 [I-370] | 70 to 90 | 0.1 to 0.5
11 | Cc1ncsc1-c1ccc(CNC(=O)[C@@H]2C[C@@H](O)CN2C(=O)[C@@H](NC(=O)[C@H]2CC[C@@H](N(C)Cc3cnc(N4C5CCC4CN(c4cc(-c6ccccc6O)nnc4N)C5)nc3)CC2)C(C)(C)C)cc1 [I-371] | > 90 | 0.1 to 0.5
12 | Cc1ncsc1-c1ccc(CNC(=O)[C@@H]2C[C@@H](O)CN2C(=O)[C@@H](NC(=O)[C@H]2CC[C@H](N(C)Cc3cnc(N4C5CCC4CN(c4cc(-c6ccccc6O)nnc4N)C5)nc3)CC2)C(C)(C)C)cc1 [I-372] | 50 to 70 | 0.501 to 1
13 | Cc1ncsc1-c1ccc(CNC(=O)[C@@H]2C[C@@H](O)CN2C(=O)[C@@H](NC(=O)[C@H]2CC[C@@H](CN3CCC(c4cnc(N5C6CCC5CN(c5cc(-c7ccccc7O)nnc5N)C6)nc4)CC3)CC2)C(C)(C)C)cc1 [I-373] | > 90 | 0.1 to 0.5
14 | Cc1ncsc1-c1ccc(CNC(=O)[C@@H]2C[C@@H](O)CN2C(=O)[C@@H](NC(=O)[C@H]2C[C@@H](CN3CCC(c4cnc(N5C6CCC5CN(c5cc(-c7ccccc7O)nnc5N)C6)nc4)CC3)C2)C(C)(C)C)cc1 [I-374] | 70 to 90 | 0.1 to 0.5
15 | Cc1ncsc1-c1ccc(CNC(=O)[C@@H]2C[C@@H](O)CN2C(=O)[C@@H](NC(=O)[C@H]2C[C@H](CN3CCC(c4cnc(N5C6CCC5CN(c5cc(-c7ccccc7O)nnc5N)C6)nc4)CC3)C2)C(C)(C)C)cc1 [I-376] | 50 to 70 | 0.501 to 1
16 | Cc1ncsc1-c1ccc(CNC(=O)[C@@H]2C[C@@H](O)CN2C(=O)[C@@H](NC(=O)[C@H]2CC[C@@H](CCCCCN3CCC(Cn4cc(-c5cc(-c6ccccc6O)nnc5N)cn4)CC3)CC2)C(C)(C)C)cc1 [I-377] | 70 to 90 | 0.1 to 0.5

Row | SMILES | Dmax [%] | DC50 [µM]
17 | Cc1ncsc1-c1ccc(CNC(=O)[C@@H]2C[C@@H](O)CN2C(=O)[C@@H](NC(=O)[C@H]2CC[C@@H](c3ccc(CN4CCC(Cn5cc(-c6cc(-c7ccccc7O)nnc6N)cn5)CC4)cc3)CC2)C(C)(C)C)cc1 [I-379] | > 90 | 0.1 to 0.5
18 | Cc1ncsc1-c1ccc(CNC(=O)[C@@H]2C[C@@H](O)CN2C(=O)[C@@H](NC(=O)[C@H]2CC[C@H](c3ccc(CN4CCC(Cn5cc(-c6cc(-c7ccccc7O)nnc6N)cn5)CC4)cc3)CC2)C(C)(C)C)cc1 [I-380] | > 90 | 0.1 to 0.5
19 | Cc1ncsc1-c1ccc(CNC(=O)[C@@H]2C[C@@H](O)CN2C(=O)[C@@H](NC(=O)C2CC3(CCN(CCN4CCC(Cn5cc(-c6cc(-c7ccccc7O)nnc6N)cn5)CC4)CC3)C2)C(C)(C)C)cc1 [I-381] | 50 to 70 | 0.501 to 1
20 | Cc1ncsc1-c1ccc(CNC(=O)[C@@H]2C[C@@H](O)CN2C(=O)[C@@H](NC(=O)C[C@H]2C[C@H](N3CCC(c4cnc(N5C6CCC5CN(c5cc(-c7ccccc7O)nnc5N)C6)nc4)CC3)C2)C(C)(C)C)cc1 [I-391] | > 90 | 0.1 to 0.5
21 | Cc1ncsc1-c1ccc(CNC(=O)[C@@H]2C[C@@H](O)CN2C(=O)[C@@H](NC(=O)C[C@H]2C[C@@H](N3CCC(c4cnc(N5C6CCC5CN(c5cc(-c7ccccc7O)nnc5N)C6)nc4)CC3)C2)C(C)(C)C)cc1 [I-392] | 70 to 90 | 0.1 to 0.5
22 | Cc1ncsc1-c1ccc(CNC(=O)[C@@H]2C[C@@H](O)CN2C(=O)[C@@H](NC(=O)[C@H]2CC[C@H](N3CC(c4cnc(N5C6CCC5CN(c5cc(-c7ccccc7O)nnc5N)C6)nc4)C3)CC2)C(C)(C)C)cc1 [I-393] | > 90 | 0.1 to 0.5
23 | Cc1ncsc1-c1ccc(CNC(=O)[C@@H]2C[C@@H](O)CN2C(=O)[C@@H](NC(=O)C2CC3(CCN(Cc4cnc(N5C6CCC5CN(c5cc(-c7ccccc7O)nnc5N)C6)nc4)CC3)C2)C(C)(C)C)cc1 [I-394] | > 90 | 0.1 to 0.5
24 | Cc1ncsc1-c1ccc(CNC(=O)[C@@H]2C[C@@H](O)CN2C(=O)[C@@H](NC(=O)[C@H]2CC[C@H](C(=O)N(C)Cc3cnc(N4C5CCC4CN(c4cc(-c6ccccc6O)nnc4N)C5)nc3)CC2)C(C)(C)C)cc1 [I-396] | 70 to 90 | 0.1 to 0.5
25 | Cc1ncsc1-c1ccc(CNC(=O)[C@@H]2C[C@@H](O)CN2C(=O)[C@@H](NC(=O)[C@H]2CC[C@H](N3CCC(CN4CCC(Cn5cc(-c6cc(-c7ccccc7O)nnc6N)cn5)CC4)CC3)CC2)C(C)(C)C)cc1 [I-397] | < 50 | > 1
26 | Cc1ncsc1-c1ccc(CNC(=O)[C@@H]2C[C@@H](O)CN2C(=O)[C@@H](NC(=O)[C@H]2CC[C@H](CN3CCC(c4cnc(N5C6CCC5CN(c5cc(-c7ccccc7O)nnc5N)C6)nc4)CC3)CC2)C(C)(C)C)c(C(F)(F)F)c1 [I-398] | 50 to 70 | 0.501 to 1
27 | Cc1ncsc1-c1ccc(CNC(=O)[C@@H]2C[C@@H](O)CN2C(=O)[C@@H](NC(=O)[C@H]2CC[C@H](N3CCC(N4CCC(n5cc(-c6cc(-c7ccccc7O)nnc6N)cn5)CC4)CC3)CC2)C(C)(C)C)cc1 [I-400, (2S,4R)-1-((S)-2-((1r,4S)-4-(4-(4-(3-amino-6-(2-hydroxyphenyl)pyridazin-4-yl)-1H-pyrazol-1-yl)-[1,4′-bipiperidin]-1′-yl)cyclohexanecarboxamido)-3,3-dimethylbutanoyl)-4-hydroxy-N-(4-(4-methylthiazol-5-yl)benzyl)pyrrolidine-2-carboxamide] | 70 to 90 | 0.501 to 1
28 | Cc1ncsc1-c1ccc(CNC(=O)[C@@H]2C[C@@H](O)CN2C(=O)[C@@H](NC(=O)[C@@H]2CC3CCC2C[C@@H]3c2cnc(N3C4CCC3CN(c3cc(-c5ccccc5O)nnc3N)C4)nc2)C(C)(C)C)cc1 (some centres unmarked) [I-410] | > 90 | 0.1 to 0.5
29 | Cc1ncsc1-c1ccc(CNC(=O)[C@@H]2C[C@@H](O)CN2C(=O)[C@@H](NC(=O)[C@H]2CC[C@@H](Cc3ccc(-c4cnc(N5C6CCC5CN(c5cc(-c7ccccc7O)nnc5N)C6)nc4)cc3)CC2)C(C)(C)C)cc1 [I-413] | 70 to 90 | 0.1 to 0.5
30 | Cc1ncsc1-c1ccc(CNC(=O)[C@@H]2C[C@@H](O)CN2C(=O)[C@@H](NC(=O)C2CC3(C2)CC(N2CCC(c4cnc(N5C6CCC5CN(c5cc(-c7ccccc7O)nnc5N)C6)nc4)CC2)C3)C(C)(C)C)cc1 (some centres unmarked) [I-414] | > 90 | 0.1 to 0.5
31 | Cc1ncsc1-c1ccc(CNC(=O)[C@@H]2C[C@@H](O)CN2C(=O)[C@@H](NC(=O)C2CC3(C2)CC(N(C)Cc2cnc(N4C5CCC4CN(c4cc(-c6ccccc6O)nnc4N)C5)nc2)C3)C(C)(C)C)cc1 (some centres unmarked) [I-416] | > 90 | 0.1 to 0.5
